PubChem BioAssay (NCI)
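Protocol summary: plate cells (96-well), add compound at 5 concentrations, incubate 48 h, interpolate endpoints linearly. GI50 marks 50% less growth. The concentration for full growth arrest is given as TGI.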

Legend:
Assay in all cases: DTP human tumour cell line panel, 48 h
[1] = test system: TK-10 renal
[2] = test system: MDA-MB-435
[3] = test system: NCI-H23 lung
[4] = test system: K-562 leukemia
[5] = test system: MOLT-4 leukemia
[6] = test system: MDA-N
[7] = test system: COLO 205 colon
[8] = test system: SF-268 CNS
[9] = test system: OVCAR-8 ovarian
[10] = test system: HS 578T breast

| Structure (SMILES) | TGI [1] [µM] | TGI [2] [µM] | TGI [3] [µM] | TGI [4] [µM] | TGI [5] [µM] | TGI [6] [µM] | TGI [7] [µM] | TGI [8] [µM] | TGI [9] [µM] | GI50 [1] [µM] | GI50 [2] [µM] | GI50 [3] [µM] | GI50 [4] [µM] | GI50 [10] [µM] | TGI [10] [µM] | GI50 [7] [µM] | GI50 [8] [µM] | GI50 [9] [µM] |
| --- | --- | --- | --- | --- | --- | --- | --- | --- | --- | --- | --- | --- | --- | --- | --- | --- | --- | --- |
| O=c1c2cc(I)ccc2nc(-c2cccs2)n1-c1ccc(O)cc1 | 23.3 | 30.8 | 36.7 | > 100 | 78.9 | 62.8 | 36.1 | 32.8 | 29.4 |  |  |  |  |  |  |  |  |  |
| Cc1cc(N2CCCC2)nc(N(CCNc2ccnc3cc(Cl)ccc23)Cc2ccco2)n1 | 31.3 | > 100 | > 100 | > 100 |  |  | 4.38 | > 100 | > 100 | 5.46 | 3.33 | 2.75 | 2.26 | 6.6 | 69.3 | 1.8 | 11.7 | 4.35 |
| CC(C)(Oc1ccc(Cl)cc1)C(=O)N(C(=O)N1CCC(c2ccccc2)CC1)c1ccccc1 | > 100 | > 100 | > 100 | > 100 | > 28.3 |  | > 62.5 | > 100 | > 100 |  |  |  |  |  | > 100 |  |  |  |
| COc1ccccc1NC(=O)CC(=O)N1N=C(C)C(N=Nc2ccc(C(=O)O)cc2)C1=O (stereo unspecified) | > 100 | > 100 | > 100 | > 100 |  | > 100 | > 100 | > 100 | > 100 |  |  |  |  |  | > 100 |  |  |  |
| COc1cc(C2c3cc4c(cc3OC(NNC(N)=O)C2C)OCO4)cc(OC)c1O (stereo unspecified) | > 73.8 |  | > 100 | > 100 | > 100 | 1.02 | 9.4 | > 100 | > 100 |  |  |  |  |  | > 100 |  |  |  |
| COc1ccc(NC(C)=O)cc1N1C(=O)/C(=C\c2cc(OC)c(OC)c(OC)c2)SC1c1ccccc1 (stereo unspecified) | > 100 | > 100 | > 100 | > 100 | 65.6 | 72.3 | > 100 |  | > 100 |  |  |  |  |  |  |  |  |  |
| Cc1nc2c(sc(=S)n2-c2ccccc2)c(=O)[nH]1 | > 100 |  | > 100 | > 100 | > 100 |  | > 100 | > 100 | > 100 |  |  |  |  |  |  |  |  |  |
| COc1ccc(C2N(NC(=O)c3ccncc3)C(=O)CS2(=O)=O)cc1F (stereo unspecified) | > 100 |  | > 100 |  | > 100 |  | > 100 | > 100 |  |  |  |  |  |  |  |  |  |  |
| COc1ccc(-c2cc(-c3ccc(Nc4ccnc5cc(Cl)ccc45)cc3)[nH]c(=O)c2C#N)c2ccccc12 | 29.7 |  | > 91.6 | 6.35 | 6.17 | 6.02 | 6.89 | > 96.6 | 5.41 |  |  |  |  |  |  |  |  |  |
| COc1ccccc1Cc1nc(-c2ccccc2)nn(C2OC(COC(C)=O)C(OC(C)=O)C(OC(C)=O)C2OC(C)=O)c1=S (stereo unspecified) |  |  | 42.6 | > 100 | > 100 |  | > 86.9 | 60.4 | > 100 |  |  |  |  |  |  |  |  |  |
| C(CCCCc1nnc(N2CCCCC2)o1)CCCc1nnc(N2CCCCC2)o1 | > 100 | > 100 | > 100 | > 100 | > 100 |  | > 100 | > 100 | > 100 |  |  |  |  |  |  |  |  |  |
| COc1cc2c(cc1OC)C(Cl)C(c1ccc(Cl)c(Cl)c1)=C2Cl (stereo unspecified) | 48.7 |  | > 100 | > 100 | 12.3 |  | 28 |  | 19.5 |  |  |  |  |  |  |  |  |  |
| NCCCN(CCCN)CCN(CCN(CCCN)CCCN)CCN(CCCN)CCCN | > 100 | > 100 | > 100 | > 100 |  | > 100 | > 100 |  | > 100 |  |  |  |  |  | 58.5 |  |  |  |
| CCOC(=O)c1cc2c(C(=O)c3ccc([N+](=O)[O-])cc3)c(C(C)=O)ccc2[nH]1 | > 100 | > 100 | > 100 | > 100 | > 100 | > 100 | > 100 | 38.9 |  |  |  |  |  |  | 50.1 |  |  |  |
| CC1(c2ccc[n+](Cc3ccccc3)c2)OCCO1 | > 100 |  | > 100 | > 100 | > 100 |  | > 100 |  | > 100 |  |  |  |  |  |  |  |  |  |
| Cc1cn(Cc2cnnn2CC2OC(n3cc(C)c(=O)[nH]c3=O)CC2O)c(=O)[nH]c1=O (stereo unspecified) | > 100 | > 100 | > 100 |  | > 100 | > 100 | > 100 | > 100 | > 100 |  |  |  |  |  | > 100 |  |  |  |
| CCNC(=O)c1cc(/C=C/c2ccc([N+](=O)[O-])o2)nc2ccccc12 | > 91.9 | 12.6 | > 100 | > 100 | > 95.4 |  | > 84.2 | > 100 | > 100 |  |  |  |  |  | > 100 |  |  |  |
| COc1cc2cc[n+]3c(C)c4cc(OC)c(OC)cc4c([O-])c3c2cc1OC | > 100 |  | > 100 | > 100 | > 100 |  | 48.3 | > 100 | > 100 |  |  |  |  |  |  |  |  |  |
| CN(C)c1nc2oc(-c3ccccc3)c(-c3ccccc3)c2c2nnnn12 | > 100 | > 100 | > 100 | > 100 | > 100 |  | > 100 | > 100 | > 100 |  |  |  |  |  | > 100 |  |  |  |
| NNC(=O)Cn1c2ccc(Br)cc2c2nc3ccccc3nc21 | > 100 | > 100 | > 100 | > 100 | > 100 | > 100 | > 100 | > 100 | > 100 |  |  |  |  |  |  |  |  |  |
| CCN(CC)c1ccc2cc(C(=O)Nc3cccc4ccccc34)c(=N)oc2c1 | > 100 | > 100 |  | > 100 |  | > 100 | > 100 | > 100 | > 100 |  |  |  |  |  | > 100 |  |  |  |
| C/C(Nc1ccc(F)cc1)=C1/CCOC1=O | > 100 | > 100 | > 100 | > 100 | > 100 |  | 47 | > 100 | > 100 |  |  |  |  |  | > 100 |  |  |  |
| CN1CCN(CCCBr)CC1 | > 100 | > 100 | > 100 | > 100 |  | > 100 | > 100 | > 100 | > 100 |  |  |  |  |  | > 100 |  |  |  |
| CCOC(=O)c1nc2ccc(C(F)(F)F)cc2nc1Oc1cc(OC)cc(OC)c1 | > 100 | > 100 |  | > 100 | > 100 | > 100 | > 100 | > 100 | > 100 |  |  |  |  |  | 64.2 |  |  |  |
